According to patent US12139492B2 (Endotarget Inc., priority 2021, dated 2024):
Like-named read-outs stand apart in the source and are kept apart here.

Experiments:
BTK = BTK (Homo sapiens, UniProt Q06187); assay: Degradation of BTK protein in Namalwa cells (Western blot; DC50, Dmax); settings: for DC50: cell line not given
JeKo-1 cells = assay: Antiproliferative effect, MTS cell viability assay, JeKo-1 cells; type: cell-based; settings: JeKo-1 mantle cell lymphoma cells, read-out: IC50 (anti-proliferation) JeKO-1 cells
Procedure, shortened: (§1)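 Tested at six concentrations (0 to 10 μM in tenfold steps), 72 h; viability by MTS, A490.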

Mino cells = assay: Antiproliferative effect, MTS cell viability assay, Mino cells; type: cell-based; settings: Mino mantle cell lymphoma cells, read-out: IC50 (anti-proliferation) Mino cells
Procedure, shortened: as §1

[1] = read-out: DC50 (BTK degradation), concentration giving 50% reduction of BTK expression level
[2] = read-out: Dmax (BTK degradation)

BTK, sequence (Q06187 whole entry): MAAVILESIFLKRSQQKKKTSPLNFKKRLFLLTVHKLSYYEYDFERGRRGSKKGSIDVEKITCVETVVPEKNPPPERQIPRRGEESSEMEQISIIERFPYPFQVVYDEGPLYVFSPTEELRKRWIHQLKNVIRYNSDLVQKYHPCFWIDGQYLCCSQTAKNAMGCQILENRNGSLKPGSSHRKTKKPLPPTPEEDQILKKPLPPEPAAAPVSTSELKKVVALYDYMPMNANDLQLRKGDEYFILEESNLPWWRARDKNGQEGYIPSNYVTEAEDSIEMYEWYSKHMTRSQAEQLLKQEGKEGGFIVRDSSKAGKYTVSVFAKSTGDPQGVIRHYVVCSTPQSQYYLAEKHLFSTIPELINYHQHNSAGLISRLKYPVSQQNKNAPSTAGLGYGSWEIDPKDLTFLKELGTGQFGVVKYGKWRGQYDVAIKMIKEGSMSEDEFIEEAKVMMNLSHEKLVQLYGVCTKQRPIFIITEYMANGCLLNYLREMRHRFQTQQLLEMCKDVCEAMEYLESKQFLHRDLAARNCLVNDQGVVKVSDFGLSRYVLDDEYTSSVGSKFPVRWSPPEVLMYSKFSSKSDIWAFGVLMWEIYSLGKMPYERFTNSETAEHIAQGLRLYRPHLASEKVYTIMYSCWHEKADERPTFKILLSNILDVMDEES

| SMILES | DC50 (BTK; [1]) [nM] | Dmax (BTK; [2]) [%] | Dmax (BTK) [%] | DC50 (BTK; BTK degradation) [nM] | degradation of BTK protein (BTK; Namalwa B lymphocyte cells, various concentrations, 24 hours, Western blot) | IC50 (JeKo-1 cells; Homo sapiens) [nM] | IC50 (Mino cells; Homo sapiens, MINO) [nM] | IC50 (JeKo-1 cells) [nM] | IC50 (Mino cells) [nM] |
| --- | --- | --- | --- | --- | --- | --- | --- | --- | --- |
| NC(=O)c1c(-c2ccc(Oc3ccccc3)cc2)nn2c1NCC[C@H]2C1CCN(CC2CCN(C(=O)N3CCC(C4CCN(c5ccc6c(c5)C(=O)N(C5CCC(=O)NC5=O)C6=O)CC4)CC3)CC2)CC1 (stereo partly drawn) [Compound 405, (7S)-7-(1-((1-(1′-(2-(2,6-dioxopiperidin-3-yl)-1,3-dioxoisoindolin-5-yl)-[4,4′-bipiperidine]-1-carbonyl)piperidin-4-yl)methyl)piperidin-4-yl)-2-(4-phenoxyphenyl)-4,5,6,7-tetrahydropyrazolo[1,5-a]pyrimidine-3-carboxamide] | 10 to 50 | > 90 | – | – | – | 1000 to 10000 | < 1000 | – | – |
| NC(=O)c1c(-c2ccc(Oc3ccccc3)cc2)nn2c1NCCC2C1CCN(C2CCN(C(=O)N3CCC(CN4CCN(c5ccc6c(c5)C(=O)N(C5CCC(=O)NC5=O)C6=O)CC4)CC3)CC2)CC1 (stereo not shown) [Compound 349, 7-(1′-(4-((4-(2-(2,6-dioxopiperidin-3-yl)-1,3-dioxoisoindolin-5-yl)piperazin-1-yl)methyl)piperidine-1-carbonyl)-[1,4′-bipiperidin]-4-yl)-2-(4-phenoxyphenyl)-4,5,6,7-tetrahydropyrazolo[1,5-a]pyrimidine-3-carboxamide] | – | – | > 90 | 10 to 50 | – | 1000 to 10000 | 1000 to 10000 | – | – |
| NC(=O)c1c(-c2ccc(Oc3ccccc3)cc2)nn2c1NCC[C@H]2C1CCN(C2CCN(C(=O)N3CCC(CN4CCC(c5ccc6c(c5)CN(C5CCC(=O)NC5=O)C6=O)CC4)CC3)CC2)CC1 (stereo partly drawn) [Compound 396, (7S)-7-(1′-(4-((4-(2-(2,6-dioxopiperidin-3-yl)-1-oxoisoindolin-5-yl)piperidin-1-yl)methyl)piperidine-1-carbonyl)-[1,4′-bipiperidin]-4-yl)-2-(4-phenoxyphenyl)-4,5,6,7-tetrahydropyrazolo[1,5-a]pyrimidine-3-carboxamide] | 10 to 50 | > 75 | – | – | – | > 10000 | 1000 to 10000 | – | – |
| Nc1ncnc2c1c(-c1ccc(Oc3ccccc3)cc1)nn2C1CCN(C[C@@H]2CCN(CC3CCN(c4ccc5c(c4)C(=O)N(C4CCC(=O)NC4=O)C5=O)CC3)C2)CC1 (stereo partly drawn) [Compound 445b, 5-(4-(((S)-3-((4-(4-amino-3-(4-phenoxyphenyl)-1H-pyrazolo[3,4-d]pyrimidin-1-yl)piperidin-1-yl)methyl)pyrrolidin-1-yl)methyl)piperidin-1-yl)-2-(2,6-dioxopiperidin-3-yl)isoindoline-1,3-dione] | 10 to 50 | > 90 | – | – | – | 1000 to 10000 | 1000 to 10000 | – | – |
| Nc1ncnc2c1c(-c1ccc(Oc3ccccc3)cc1)nn2[C@@H]1CCCN(CCNC(=O)C2CCN(c3ccc4c(c3)C(=O)N(C3CCC(=O)NC3=O)C4=O)CC2)C1 (stereo partly drawn) [Compound 527, N-(2-((R)-3-(4-amino-3-(4-phenoxyphenyl)-1H-pyrazolo[3,4-d]pyrimidin-1-yl)piperidin-1-yl)ethyl)-1-(2-(2,6-dioxopiperidin-3-yl)-1,3-dioxoisoindolin-5-yl)piperidine-4-carboxamide] | 10 to 50 | > 75 | – | – | – | 1000 to 10000 | < 1000 | – | – |
| NC(=O)c1c(-c2ccc(Oc3ccccc3)cc2)nn2c1NCCC2C1CCN(CC2CCN(CCN3CCC(c4ccc5c(c4)CN(C4CCC(=O)NC4=O)C5=O)CC3)CC2)CC1 (stereo not shown) [Compound 320, 7-(1-((1-(2-(4-(2-(2,6-dioxopiperidin-3-yl)-1-oxoisoindolin-5-yl)piperidin-1-yl)ethyl)piperidin-4-yl)methyl)piperidin-4-yl)-2-(4-phenoxyphenyl)-4,5,6,7-tetrahydropyrazolo[1,5-a]pyrimidine-3-carboxamide] | – | – | > 90 | 10 to 50 | – | 1000 to 10000 | 1000 to 10000 | – | – |
| Nc1ncnc2c1c(-c1ccc(Oc3ccccc3)cc1)nn2C1CCN(C[C@H]2CCN(C[C@@H]3CCN(c4ccc5c(c4)C(=O)N(C4CCC(=O)NC4=O)C5=O)C3)C2)CC1 (stereo partly drawn) [Compound 447b, 5-((S)-3-(((R)-3-((4-(4-amino-3-(4-phenoxyphenyl)-1H-pyrazolo[3,4-d]pyrimidin-1-yl)piperidin-1-yl)methyl)pyrrolidin-1-yl)methyl)pyrrolidin-1-yl)-2-(2,6-dioxopiperidin-3-yl)isoindoline-1,3-dione] | < 10 | > 90 | – | – | – | 1000 to 10000 | 1000 to 10000 | – | – |
| Nc1ncnc2c1c(-c1ccc(Oc3ccccc3)cc1)nn2C1CCN(C2CCN(C(=O)N3CCN(CCCN4CCN(c5ccc6c(c5)CN(C5CCC(=O)NC5=O)C6=O)CC4)CC3)CC2)CC1 (stereo not shown) [Compound 258, 3-(5-(4-(3-(4-(4-(4-amino-3-(4-phenoxyphenyl)-1H-pyrazolo[3,4-d]pyrimidin-1-yl)-[1,4′-bipiperidine]-1′-carbonyl)piperazin-1-yl)propyl)piperazin-1-yl)-1-oxoisoindolin-2-yl)piperidine-2,6-dione] | – | – | > 75 | 10 to 50 | – | > 10000 | 1000 to 10000 | – | – |
| NC1=NC=NC2C1C(c1ccc(Oc3ccccc3)cc1)=NN2C1CCN(C(=O)N2CC(C3CN(c4ccc5c(c4)CN(C4CCC(=O)NC4=O)C5=O)C3)C2)CC1 (stereo not shown) [Compound 494, 3-(5-(1′-(4-(4-amino-3-(4-phenoxyphenyl)-3a,7a-dihydro-1H-pyrazolo[3,4-d]pyrimidin-1-yl)piperidine-1-carbonyl)-[3,3′-biazetidin]-1-yl)-1-oxoisoindolin-2-yl)piperidine-2,6-dione] | < 10 | > 90 | – | – | – | < 1000 | < 1000 | – | – |
| Nc1ncnc2c1c(-c1ccc(Oc3ccccc3)cc1)nn2C1CCN(C2CCN(CC3CN(c4ccc5c(c4)C(=O)N(C4CCC(=O)NC4=O)C5=O)C3)CC2)CC1 (stereo not shown) [Compound 433, 5-(3-((4-(4-amino-3-(4-phenoxyphenyl)-1H-pyrazolo(3,4-d)pyrimidin-1-yl)-(1,4′-bipiperidin)-1′-yl)methyl)azetidin-1-yl)-2-(2,6-dioxopiperidin-3-yl)isoindoline-1,3-dione] | > 50 | > 90 | – | – | dose-dependent degradation | 1000 to 10000 | < 1000 | – | – |
| NC(=O)c1c(-c2ccc(Oc3ccccc3)cc2)nn2c1NCCC2C1CCN(CC2CCN(C(=O)N3CCN(CC4CCN(c5ccc6c(c5)C(=O)N(C5CCC(=O)NC5=O)C6=O)CC4)CC3)CC2)CC1 (stereo not shown) [Compound 371] | – | – | > 90 | 10 to 50 | – | < 1000 | < 1000 | – | – |

The next lines start with results.

| DC50 (BTK; [1]) [nM] | Dmax (BTK; [2]) [%] | Dmax (BTK) [%] | DC50 (BTK; BTK degradation) [nM] | degradation of BTK protein (BTK; Namalwa B lymphocyte cells, various concentrations, 24 hours, Western blot) | SMILES | IC50 (JeKo-1 cells; Homo sapiens) [nM] | IC50 (Mino cells; Homo sapiens, MINO) [nM] | IC50 (JeKo-1 cells) [nM] | IC50 (Mino cells) [nM] |
| --- | --- | --- | --- | --- | --- | --- | --- | --- | --- |
| – | – | > 50 | > 50 | – | Nc1ncnc2c1c(-c1ccc(Oc3ccccc3)cc1)nn2C1CCN(C2CCN(C(=O)N3CCN(c4ccc5c(c4)C(=O)N(C4CCC(=O)NC4=O)C5=O)CC3)CC2)CC1 (stereo not shown) [Compound 229, 5-(4-(4-(4-amino-3-(4-phenoxyphenyl)-1H-pyrazolo[3,4-d]pyrimidin-1-yl)-[1,4′-bipiperidine]-1′-carbonyl)piperazin-1-yl)-2-(2,6-dioxopiperidin-3-yl)isoindoline-1,3-dione] | 1000 to 10000 | > 10000 | – | – |
| – | – | > 75 | 10 to 50 | – | Nc1ncnc2c1c(-c1ccc(Oc3ccccc3)cc1)nn2C1CCN(C2CCN(CCCN3CCN(c4ccc5c(c4)C(=O)N(C4CCC(=O)NC4=O)C5=O)CC3)CC2)CC1 (stereo not shown) [Compound 221, 5-(4-(3-(4-(4-amino-3-(4-phenoxyphenyl)-1H-pyrazolo[3,4-d]pyrimidin-1-yl)-[1,4′-bipiperidin]-1′-yl)propyl)piperazin-1-yl)-2-(2,6-dioxopiperidin-3-yl)isoindoline-1,3-dione] | 1000 to 10000 | > 10000 | – | – |
| – | – | > 75 | 10 to 50 | – | Nc1ncnc2c1c(-c1ccc(Oc3ccccc3)cc1)nn2C1CCN(C2CCN(C(=O)N3CCN(CCC4CCN(c5ccc6c(c5)C(=O)N(C5CCC(=O)NC5=O)C6=O)CC4)CC3)CC2)CC1 (stereo not shown) [Compound 247, 5-(4-(2-(4-(4-(4-amino-3-(4-phenoxyphenyl)-1H-pyrazolo[3,4-d]pyrimidin-1-yl)-[1,4′-bipiperidine]-1′-carbonyl)piperazin-1-yl)ethyl)piperidin-1-yl)-2-(2,6-dioxopiperidin-3-yl)isoindoline-1,3-dione] | 1000 to 10000 | 1000 to 10000 | – | – |
| – | – | – | < 10 | – | Nc1ncnc2c1c(-c1ccc(Oc3ccccc3)cc1)nn2C1CCN(C2CCN(CC3CCN(c4ccc5c(c4)C(=O)N(C4CCC(=O)NC4=O)C5=O)CC3)CC2)CC1 (stereo in doubt) [Compound 213b, (S)-5-(4-((4-(4-amino-3-(4-phenoxyphenyl)-1H-pyrazolo[3,4-d]pyrimidin-1-yl)-[1,4′-bipiperidin]-1′-yl)methyl)piperidin-1-yl)-2-(2,6-dioxopiperidin-3-yl)isoindoline-1,3-dione] | – | – | < 1000 | < 1000 |
| – | – | > 90 | 10 to 50 | – | Nc1ncnc2c1c(-c1ccc(Oc3ccccc3)cc1)nn2C1CCN(C2CCN(C(=O)N3CCC(CC4CCN(c5ccc6c(c5)C(=O)N(C5CCC(=O)NC5=O)C6=O)CC4)CC3)CC2)CC1 (stereo not shown) [Compound 237, 5-(4-((1-(4-(4-amino-3-(4-phenoxyphenyl)-1H-pyrazolo[3,4-d]pyrimidin-1-yl)-[1,4′-bipiperidine]-1′-carbonyl)piperidin-4-yl)methyl)piperidin-1-yl)-2-(2,6-dioxopiperidin-3-yl)isoindoline-1,3-dione] | 1000 to 10000 | < 1000 | – | – |
